According to PubChem BioAssay (NCI):
“And” between values parts separate entries of the source, which are not always exact repeats. Identical values can stand only once.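 Test compounds were applied to cells in 96-well plates for 48 hours at 5 doses. GI50 = concentration required for 50% inhibition of growth. TGI marks complete inhibition of growth.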

Key:
Assay in all cases: NCI tumour cell line growth inhibition, 48 h
ACHN renal = system: ACHN renal
BT-549 breast = system: BT-549 breast
DLD-1 colon = system: DLD-1 colon
DMS 114 small cell lung = system: DMS 114 small cell lung
DU-145 prostate = system: DU-145 prostate
HCC-2998 colon = system: HCC-2998 colon
HOP-62 NSCLC = system: HOP-62 NSCLC
HS 578T breast = system: HS 578T breast
HT29 colon = system: HT29 colon
LOX IMVI melanoma = system: LOX IMVI melanoma
NCI-H226 lung = system: NCI-H226 lung
NCI-H23 lung = system: NCI-H23 lung
P388/ADR leukemia = system: P388/ADR leukemia
SN12K1 renal = system: SN12K1 renal
UACC-257 melanoma = system: UACC-257 melanoma
XF 498 CNS = system: XF 498 CNS

SMILES: C/C(=C\COc1ccc2ccc(=O)oc2c1)C1=CC(=O)C(C)(C)O1
- TGI (ACHN renal): 15.9 µM
- TGI (BT-549 breast): 19.1 µM
- TGI (DLD-1 colon): 30.8 µM
- TGI (DMS 114 small cell lung): 9.44 µM
- TGI (DU-145 prostate): 7.34 µM
- GI50 (HCC-2998 colon): 2.85 µM
- TGI (HCC-2998 colon): 5.76 µM and 8.34 µM
- GI50 (HOP-62 NSCLC): 6.12 µM
- TGI (HOP-62 NSCLC): 39.7 µM and 14.1 µM
- TGI (HS 578T breast): 7.3 µM
- GI50 (HT29 colon): 3.55 µM
- TGI (HT29 colon): 13.3 µM and 7.83 µM
- GI50 (LOX IMVI melanoma): 2.2 µM
- TGI (LOX IMVI melanoma): 9.69 µM and 7.47 µM
- GI50 (NCI-H226 lung): 2.64 µM
- TGI (NCI-H226 lung): 7.24 µM and 10.2 µM
- GI50 (NCI-H23 lung): 2.79 µM
- TGI (NCI-H23 lung): 12.3 µM and 8.98 µM
- TGI (P388/ADR leukemia): 7.3 µM
- TGI (SN12K1 renal): 9.97 µM
- GI50 (UACC-257 melanoma): 7.22 µM
- TGI (UACC-257 melanoma): 29.7 µM and 11.3 µM
- TGI (XF 498 CNS): 7.74 µM
